# Reference: PubChem BioAssay AID328 (DTP/NCI, 2004)
# Several values for one entry are separate records, joined by “and”; a condition that tells them apart may be missing. Equal entries are not always repeated. Inconclusive results and toxic doses are left out.
# System: BDF1 mice, P388 leukemia ip, median survival T/C
# Experiment: NCI In Vivo Anticancer Drug Screen. Data for tumor model P388 Leukemia (intraperitoneal) in B6D2F1 (BDF1) mice
# Details: endpoint: median survival time, higher = longer survival
# Method in brief: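 Steps: implant the tumour, treat one group with compound and another with vehicle, record survival, then divide treated by control.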
# [1] = dose: 50.0 mg/kg/injection, schedule: Q01DX009 (ip), vehicle: saline with Tween-80
# [2] = dose: 100.0 mg/kg/injection, schedule: Q04DX003 (ip), vehicle: saline with Tween-80
# [3] = dose: 200.0 mg/kg/injection, schedule: Q04DX003 (ip), vehicle: saline with Tween-80
# [4] = dose: 400.0 mg/kg/injection, schedule: Q04DX003 (ip), vehicle: saline with Tween-80
# [5] = dose: 100.0 mg/kg/injection, schedule: Q01DX001 (ip), vehicle: saline with Tween-80
# [6] = dose: 200.0 mg/kg/injection, schedule: Q01DX001 (ip), vehicle: saline with Tween-80
# [7] = dose: 400.0 mg/kg/injection, schedule: Q01DX001 (ip), vehicle: saline with Tween-80
# [8] = dose: 100.0 mg/kg/injection, schedule: Q04DX003 (ip), vehicle: Klucel (hydroxypropylcellulose) (HPC)
smiles,measurement,setting,value
COC(=O)CCC(=O)c1ccc(OC)c(OC)c1,T/C,[1],115 % of control
same,T/C,"dose: 100.0 mg/kg/injection, schedule: Q01DX009 (ip), vehicle: saline with Tween-80",99 % of control
same,T/C,"dose: 200.0 mg/kg/injection, schedule: Q01DX009 (ip), vehicle: saline with Tween-80",99 % of control
C=CCOc1ccccc1-c1nnn(C)n1,T/C,[2],95 % of control
same,T/C,[3],97 % of control
same,T/C,[4],104 % of control
O=S(=O)(O)N(O)c1ccccc1,T/C,"dose: 25.0 mg/kg/injection, schedule: Q01DX001 (ip), vehicle: saline with Tween-80",105 % of control
same,T/C,"dose: 50.0 mg/kg/injection, schedule: Q01DX001 (ip), vehicle: saline with Tween-80",102 % of control
same,T/C,[5],100 % of control
same,T/C,[6],99 % of control and 105 % of control
same,T/C,[7],101 % of control
CC1(C)CN(Cc2ccccc2)C(C)(C)CN1N,T/C,"dose: 6.25 mg/kg/injection, schedule: Q01DX009 (ip), vehicle: saline with Tween-80",97 % of control
same,T/C,"dose: 12.5 mg/kg/injection, schedule: Q01DX009 (ip), vehicle: saline with Tween-80",101 % of control
same,T/C,"dose: 12.5 mg/kg/injection, schedule: Q04DX003 (ip), vehicle: saline with Tween-80",111 % of control
same,T/C,"dose: 25.0 mg/kg/injection, schedule: Q01DX009 (ip), vehicle: saline with Tween-80",97 % of control
same,T/C,"dose: 25.0 mg/kg/injection, schedule: Q04DX003 (ip), vehicle: saline with Tween-80",107 % of control
same,T/C,[1],115 % of control
same,T/C,"dose: 50.0 mg/kg/injection, schedule: Q04DX003 (ip), vehicle: saline with Tween-80",107 % of control
same,T/C,[2],111 % of control
Cc1oc(-c2ccccc2)nc1C(=O)Cl,T/C,[5],120 % of control
same,T/C,[6],113 % of control
same,T/C,[7],103 % of control
C[N+](C)(Cn1ncc2ccc([N+](=O)[O-])cc21)Cn1ncc2ccc([N+](=O)[O-])cc21,T/C,[2],106 % of control
CCC(=O)OCC1OC(n2cnc3c(=S)nc(N)[nH]c32)C(OC(=O)CC)C1OC(=O)CC (stereo unspecified),T/C,"dose: 12.5 mg/kg/injection, schedule: Q04DX003 (ip), vehicle: Klucel (hydroxypropylcellulose) (HPC)",103 % of control
same,T/C,"dose: 16.0 mg/kg/injection, schedule: Q04DX003 (ip), vehicle: Klucel (hydroxypropylcellulose) (HPC)",118 % of control
same,T/C,"dose: 25.0 mg/kg/injection, schedule: Q01DX009 (ip), vehicle: Klucel (hydroxypropylcellulose) (HPC)",115 % of control
same,T/C,"dose: 25.0 mg/kg/injection, schedule: Q04DX003 (ip), vehicle: Klucel (hydroxypropylcellulose) (HPC)",173 % of control
same,T/C,"dose: 50.0 mg/kg/injection, schedule: Q01DX009 (ip), vehicle: Klucel (hydroxypropylcellulose) (HPC)",100 % of control
same,T/C,[8],122 % of control
c1ccc2c(CNC3CCCCC3)c[nH]c2c1,T/C,[8],95 % of control
same,T/C,"dose: 200.0 mg/kg/injection, schedule: Q04DX003 (ip), vehicle: Klucel (hydroxypropylcellulose) (HPC)",90 % of control
same,T/C,"dose: 400.0 mg/kg/injection, schedule: Q04DX003 (ip), vehicle: Klucel (hydroxypropylcellulose) (HPC)",90 % of control
Cc1ccc([N+](=O)[O-])cc1NC(=O)SCCOC(=O)COc1ccc(Cl)cc1,T/C,[2],95 % of control
same,T/C,[3],100 % of control
same,T/C,[4],109 % of control
CC[C@]1(O)C[C@H](OC2CC(N(C)C)C(OC3CC(O)C(O)C(C)O3)C(C)O2)c2c(cc3c(c2O)C(=O)c2c(O)ccc(O)c2C3=O)[C@H]1C(=O)OC (stereo partly specified),T/C,"dose: 0.4 mg/kg/injection, schedule: Q01DX009 (ip), vehicle: Klucel (hydroxypropylcellulose) (HPC)",171 % of control
same,T/C,"dose: 0.8 mg/kg/injection, schedule: Q01DX009 (ip), vehicle: Klucel (hydroxypropylcellulose) (HPC)",158 % of control and 165 % of control
same,T/C,"dose: 1.6 mg/kg/injection, schedule: Q01DX009 (ip), vehicle: Klucel (hydroxypropylcellulose) (HPC)",201 % of control and 222 % of control
same,T/C,"dose: 3.46 mg/kg/injection, schedule: Q04DX003 (ip), vehicle: other",185 % of control
same,T/C,"dose: 5.76 mg/kg/injection, schedule: Q04DX003 (ip), vehicle: other",217 % of control
same,T/C,"dose: 9.6 mg/kg/injection, schedule: Q04DX003 (ip), vehicle: other",105 % of control
